pIC50: −log10 of the molar value.
Tests used:
[1] = test system: acute lung injury induced by endotoxin; details: pigs; cited from earlier work
PWR-1E cells = experiment: cell counting with trypan blue; type: cell-based; details: 1 μM and 5 μM, serum free RPMI 1640
Protocol: The effect of LY255283 was observed by counting of cell number. The cells were grown in 6-well cluster dishes to 70% confluence with 10% FBS-supplemented medium. At day 0, the medium was replaced with serum free RPMI 1640 and cells were stimulated with DMSO or 1 μM and 5 μM LY255283. The cells were harvested at various intervals. Cells were washed with PBS and collected by brief trypsinization. Total cell number was determined by counting each sample in duplicate with a hemocytometer using trypan blue dye. The cells treated with LY255283 in serum free RPM11640 were harvested at various intervals. […] In contrast, PWR-1 E cells which expressed few level of BLT2 were not affected by LY255283.

LNCaP cells = experiment: cell cycle analysis (PI, flow cytometry); type: cell-based, human; details: 5 μM, 48 hr
Protocol: After LNCaP cells and PWR-1E cells were treated with 5 μM LY255283 for 48 hr, the cells were fixed with 70% ethanol and stained with Pl. Cell cycle was analyzed using flow cytometry. The cells grown in 6-well cluster dishes were stimulated with 5 μM LY255283 for 48 h in serum free RPMI 1640. The cells which were collected by brief trypsinization were fixed for 12 hr with 70% ethanol at 4° C. The cells were resuspended in PBS containing RNase A (100 μg/ml) and incubated for 30 min at 37° C. The cells were stained with propidium iodide (50 μg/ml) (Sigma). Acquisition and analysis was performed by FACS using Cell Quest Alias software (BD Bioscience).

Rat2-HO6 cells = experiment: metastasis survival analysis (Kaplan-Meier); type: in vivo, nude mice; details: 2.5 mg/kg intraperitoneal, 7 weeks
Protocol: All experimental animals used in this study were treated according to guidelines approved by the Institutional Animal Care and Use Committee of Korea University. Female nude mice (Charles River, Wilmington, Mass.), four-weeks-old at the time of injection, were used in the experimental metastasis assay. Rat-2, Rat2-HO6, and Rat2-BLT2 cells (5×10^5 cells) were prepared for injection from cultures in logarithmic growth at the time of harvest. The cells were briefly treated with 0.025% trypsin and 0.1% EDTA in Hanks' balanced salt solution and quickly removed from trypsin by centrifugation, resuspended in saline containing LTB4, and injected within 1 hr in 0.1 ml into the lateral tail vein with a 26-gauge needle. For inhibitor experiments, U75302 and LY255283 (0.25 mg/kg for BLT1 antagonist and 2.5 mg/kg for BLT2 antagonist) was injected intraperitoneally 3 and 5 days after injection of cells that were pretreated with inhibitors. The mice were maintained under aseptic barrier conditions until they were sacrificed at 21 days after cell injection (n=8, each group) to identify pulmonary metastasis or to investigate the mortality of mice at the end of the experiment (7 weeks) (n=8, each group). Metastasis survival was analyzed in Kaplan-Meyer plots.

Panc-1 cells = experiment: MTT assay, cell viability; type: cell-based, human; details: 2.5, 5 and 10 μM, 48 h
Protocol: (§1) To investigate the effect of the selective BLT2 antagonist LY255283 on pancreatic cancer cell proliferation and survival, cell viability was determined by MTT assay after Panc-1 and AsPC-1 cells were exposed to LY255283 for 48 hr.
(§2) Two human pancreatic cancer cell lines were used: Panc-1 and AsPC-1. Panc-1 cells were grown in DMEM, and AsPC-1 cells were grown in RPMl 1640.
(§3) Cells were plated in 96-well plates at a concentration of 10,000 cells/well. After incubation for 24 h, cells were serum-starved for 3 h, and then various concentrations (2.5 μM, 5 μM and 10 μM) of LY255283 were added. At the end of experiments, 25μ! of a 5 mg/ml MTT solution, diluted in PBS, was added into the 96-well plates. The plates were incubated at 37° C. in 5% CO2 atmosphere for 3 hr, allowing viable cells to reduce the yellow tetrazolium salt (MTT) into dark blue formazan crystals. At the end of the 3 h incubation, the MTT solution was removed and 100 μl of dimethyl sulfoxide was added to dissolve the formazan crystals. To ensure complete dissolution of the formazan crystals, the plates were vortexed gently at low speed for 10 min. The absorbance in individual wells was determined at 540 nm by a microplate reader.

AsPC-1 cells = experiment: MTT assay, cell viability; type: cell-based, human; details: 2.5, 5 and 10 μM, 48 h
Protocol: as §1, §2, §3

[2] = test system: 253J-BV bladder cancer cell; experiment: mitochondrial membrane potential (JC-1, flow cytometry); type: cell-based, human; details: 48 hr
Protocol: Mitochondrial damage is important to the apoptosis affected by the caspase-9 pathway. To evaluate the effect of LY255283 on the mitochondria membrane potential (MMP), cell were pretreated with the fluorescent mitochondria specific cationic dye, JC-1, and changes in membrane potential were measured by flow cytometry. Cells grown in 6 well-plates for 24 hr washed PBS and incubated in RPMI 1640 with 0.5% FBS containing different concentrations of LY255283 and U75302 for 48 hr. After cells were treated with 5 μg/ml of JC-1 for 30 min. Then removal of JC-1, washed with PBS, harvested by trypsinization, and resuspended in PBS. Sample was measured at 530 nm (FL-1 green) and 590 nm (FL-2 red) using a flow cytometry. […] And because of the loss of mitochondrial membrane potential in a LY255283 treated cells, it was speculated that caspase may play an essential role in the process of apoptosis.

eosinophil membranes = details: read-out: IC50, inhibits the binding of radiolabeled LTB4 to eosinophil membranes; cited from earlier work
SV-HUC-1 cells = experiment: cell cycle analysis (PI, flow cytometry); type: cell-based; details: 48 hr, RPMI 1640 with 0.5% FBS
Protocol: The cells grown in 6-well plate were stimulated with 5 μM and 10 μM LY255283, 1 μM U75302 for 48 h in RPMI 1640 containing 0.5% FBS. The cells which were collected by brief trypsinization were fixed overnight with 70% ethanol at 4° C. The cells were resuspended in PBS containing RNase A (100 μg/ml) and incubated for 30 min at 37° C. The cells were stained with propidium iodide (50 μg/ml) (Sigma). Acquisition and analysis was performed by FACS using Cell Quest Alias software (BD Bioscience). […] Cells were treated with BLT antagonist for 48 hours and the cell cycle population was measured by flow cytometry. In brief, cells were plated in 6 well plate and then treated with LY255283, U75302 for 48 hr. At the end of the treatment, the cells were harvested and then centrifuged. The cells fixed in ice-cold 70% ethanol for 24 hr and centrifuged. The pellet were resuspended in 0.5 ml phosphate-buffered saline (PBS) and incubated with Pl 1 mg/ml treatment for 15 min.

Row | Structure (SMILES) | activation of neutrophils and acute lung injury induced by endotoxin [1] | number of PWR-1E cells (PWR-1E cells) | sub-G1 population (LNCaP cells) | survival of mouse injected with Ras-oncogene expressing transformed cells (Rat2-HO6 cells) | cell viability (MTT), Panc-1 (Panc-1 cells) | cell viability (MTT), AsPC-3 as printed (AsPC-1 cells) | mitochondria potential ([2]; 10 μM) | increase of green fluorescence (FL-1) compare with control cells ([2]; JC-1, 10 μM) | pIC50 (eosinophil membranes) | cell cycle (SV-HUC-1 cells)
1 | CCc1cc(C(C)=O)c(O)cc1OCCCCCC(C)(C)c1nnn[nH]1 [LY255283, 1-[5-ethyl-2-hydroxy-4-[[6-methyl-6-(1H-tetrazol-5-yl)heptyl]oxy]phenyl]-ethanone] | limits activation of neutrophils and prevents acute lung injury | not affected | increased population of cells with sub-GI DNA content | extended the survival | diminished cell viability in dose-dependent manner | diminished cell viability in dose-dependent manner | drop in mitochondria potential | about 2.5 fold | 6.59 | –
2 | CCCCC/C=C\C[C@@H](O)/C=C/c1cccc(C[C@@H](O)CCCCO)n1 [U75302] | – | – | – | – | – | – | – | – | – | not effect
